Data published in PubChem BioAssay AID1963843 (Molecular Pharmacology Branch, DTP, NCI, 2024).

Tested on: 616215-338-R-J1-PDC complex spheroid viability
Test: Anticancer human tumor 616215-338-R-J1-PDC patient-derived colon adenocarcinoma cell line growth inhibition [POLQ]
Details: for IC50: curve of first compound; for viability, T/C: stronger effect = lower value; active = viability on the fitted dose curve at most 10% of control; inactive = the rest
Procedure: Multicellular complex tumor spheroid response to Polymerase (POL) inhibitors (novobiocin, ART-558, RP6685) in combination with a variety of drugs and investigational agents in selected tumor cell lines
The POL inhibitors (novobiocin, ART-558, and RP6685) were evaluated both individually and in combination with standard of care and investigational anticancer small molecules within a complex spheroid model of solid tumors. . Complex spheroids include a stromal component modeled by human endothelial cells (HUVEC) and fibroblasts modeled by human mesenchymal stem cells (MSCs). The concentration ranges selected for each drug and investigational agent were based upon clinically achievable concentrations if the clinical Cmax of the agent was known.
Compounds. The drugs and investigational agents: novobiocin (NSC847541), ART-558 (NSC835418), RP-6685 (NSC848927), peposertib (NSC802822), ceralasertib (NSC780249), elimusertib (NSC800525), camonsertib (NSC841442), AZD-1390 (NSC803789), olaparib (NSC753686), talazoparib (NSC767125), rucaparib (NSC756644), sotorasib (NSC818433), MRTX-1133 (NSC836407), SN-38 (NSC673596), topotecan (NSC609699), epotoside (NSC141540), doxorubicin (NSC123127), gemcitabine (NSC613327), 5-fluorouracil (NSC19893), paclitaxel (NSC125973), vemurafenib (NSC761431), MSA-2 (NSC828583), SN-011 (NSC837082), adavosertib (NSC754352), prexasertib (NSC758257), carboplatin (NSC241240) and oxaliplatin (NSC266046), were obtained from the National Cancer Institute (NCI) Developmental Therapeutics Program Chemical Repository (21). The FDA-approved anticancer drug set is available from the Developmental Therapeutics Program at https://dtp.cancer.gov/organization/dscb/obtaining/. […] The stock solutions were prepared in dimethyl sulfoxide (DMSO, Sigma-Aldrich, St. Louis, MO, cat. D2650), except for the platinum compounds which were prepared in saline (Quality Biological, Gaithersburg, MD, cat. 114-055-101), at 800-fold the tested concentration and stored at -70 degrees C prior to their use. All drugs and investigational agents were tested over a range starting from a high concentration at or near the clinical Cmax and decreasing in half-log increments. If the clinical Cmax for an agent had not been determined, the highest concentration tested was 10 microM, except for SN-38, which was tested at a high concentration of 1 microM.
Cell Culture. All cells were maintained in an incubator at 37 degrees C and 5% CO2 with 95% humidity. The PDC lines were cultured according to standard operating procedures established by the NCI PDMR (https://pdmr.cancer.gov). Table 3 of the manuscript, lists the cell lines along with the number of the three cell types plated to form the mct-spheroids and media for tumor cell growth. After thawing, all PDC lines, except 997537-175-T-J1-PDC and 415267-285-R-J2-PDC, were cultured in Matrigel-coated flasks prepared with a working solution of 1X Ham's F-12 nutrient mix, without supplementation (Thermo Fisher Scientific, cat. 11765054), 100 U/mL penicillin-streptomycin (Thermo Fisher Scientific, cat. 15140122), and 2.5% Matrigel (Corning Inc., Corning, NY, cat. 354248) for the first three passages. The two PDC lines 997537-175-T-J1-PDC and 415267-285-R-J2-PDC were cultured on uncoated flasks. The 857933-349-R-J2-PDC line was cultured in 6C/Colon 1B media containing advanced DMEM/F-12 (Thermo Fisher Scientific, cat. 12634028), 10 mM HEPES (Thermo Fisher Scientific, cat. 15630080), 1X GlutaMAX supplement (Thermo Fisher Scientific, cat. 35050061), 0.1 mg/mL primocin (InvivoGen, San Diego, CA, cat. ant-pm-2), 10% defined fetal bovine serum, heat inactivated (HyClone Laboratories Inc., Logan, UT, cat. SH30070.03HI), 50% L-WRN conditioned media (ATCC, cat. CRL-3276), 1.25 mM N-Acetyl-L-cysteine (Sigma-Aldrich, cat. A9165), 10 mM nicotinamide (Sigma-Aldrich, cat. N0636), 1X B-27 supplement (Thermo Fisher Scientific, cat. 17504044), 1X N-2 supplement (Thermo Fisher Scientific, cat. […]

[1] = second compound 0.0316 µM, first compound 0.0316 µM
[2] = second compound 0.0316 µM, first compound 0.1 µM
[3] = second compound 0.0316 µM, first compound 0.316 µM
[4] = second compound 0.0316 µM, first compound 1 µM
[5] = second compound 0.0316 µM, first compound 3.16 µM
[6] = second compound 0.0316 µM, first compound 10 µM
[7] = second compound 0.1 µM, first compound 0.0316 µM
[8] = second compound 0.1 µM, first compound 0.1 µM
[9] = second compound 0.1 µM, first compound 0.316 µM
[10] = second compound 0.1 µM, first compound 1 µM
[11] = second compound 0.1 µM, first compound 3.16 µM
[12] = second compound 0.1 µM, first compound 10 µM
[13] = second compound 0.316 µM, first compound 0.0316 µM
[14] = second compound 0.316 µM, first compound 0.1 µM
[15] = second compound 0.316 µM, first compound 0.316 µM
[16] = second compound 0.316 µM, first compound 1 µM
[17] = second compound 0.316 µM, first compound 3.16 µM
[18] = second compound 0.316 µM, first compound 10 µM
[19] = second compound 1 µM, first compound 0.0316 µM
[20] = second compound 1 µM, first compound 0.1 µM
[21] = second compound 1 µM, first compound 0.316 µM
[22] = second compound 1 µM, first compound 1 µM
[23] = second compound 1 µM, first compound 3.16 µM
[24] = second compound 1 µM, first compound 10 µM
[25] = second compound 3.16 µM, first compound 0.0316 µM
[26] = second compound 3.16 µM, first compound 0.1 µM
[27] = second compound 3.16 µM, first compound 0.316 µM
[28] = second compound 3.16 µM, first compound 1 µM
[29] = second compound 3.16 µM, first compound 3.16 µM
[30] = second compound 3.16 µM, first compound 10 µM
[31] = second compound 10 µM, first compound 0.0316 µM
[32] = second compound 10 µM, first compound 0.1 µM
[33] = second compound 10 µM, first compound 0.316 µM
[34] = second compound 10 µM, first compound 1 µM
[35] = second compound 10 µM, first compound 3.16 µM
[36] = second compound 10 µM, first compound 10 µM
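Also: spheroids exposed to compounds for one week before readout.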
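For viability, T/C in this document: percent viability relative to DMSO vehicle wells taken as 100%.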

C#Cc1c(F)ccc2cc(O)cc(-c3ncc4c(N5CC6CCC(C5)N6)nc(OCC56CCCN5CC(F)C6)nc4c3F)c12 (stereo unspecified) + Nc1ccc(C#CCN(C(=O)Cc2ncc(C(F)(F)F)cc2C(F)(F)F)c2ccc(F)cc2)nn1
6470 nM: IC50 (second compound 3.16 µM)
6650 nM: IC50 (second compound 1 µM)
inactive: viability, T/C [1] 105% | viability, T/C [2] 96.2% | viability, T/C [3] 98.5% | viability, T/C [4] 88.6% | viability, T/C [5] 62.5% | viability, T/C [6] 45.3% | viability, T/C [7] 97.1% | viability, T/C [8] 95.9% | viability, T/C [9] 90.4% | viability, T/C [10] 75.3% | viability, T/C [11] 56.9% | viability, T/C [12] 29.2% | viability, T/C [13] 111% | viability, T/C [14] 112% | viability, T/C [15] 75.2% | viability, T/C [16] 63.3% | viability, T/C [17] 58.6% | viability, T/C [18] 39% | viability, T/C [19] 103% | viability, T/C [20] 96.2% | viability, T/C [21] 91.3% | viability, T/C [22] 81.9% | viability, T/C [23] 53.7% | viability, T/C [24] 47.9% | viability, T/C [25] 84.7% | viability, T/C [26] 89.2% | viability, T/C [27] 99.5% | viability, T/C [28] 68.8% | viability, T/C [29] 68.1% | viability, T/C [30] 40.7% | viability, T/C [31] 92.9% | viability, T/C [32] 86.2% | viability, T/C [33] 74.6% | viability, T/C [34] 57.1% | viability, T/C [35] 50.6% | viability, T/C [36] 33.7%
2490 nM: IC50 (second compound 10 µM)
3430 nM: IC50 (second compound 0.316 µM)
4110 nM: IC50 (second compound 0.1 µM)
7310 nM: IC50 (second compound 0.0316 µM)

CC1COCCN1c1cc(-c2ccnn2C)c2ccnc(-c3ccn[nH]3)c2n1 (stereo unspecified) + Nc1ccc(C#CCN(C(=O)Cc2ncc(C(F)(F)F)cc2C(F)(F)F)c2ccc(F)cc2)nn1
192 nM: IC50 (second compound 3.16 µM)
190 nM: IC50 (second compound 0.316 µM)
165 nM: IC50 (second compound 0.1 µM)
155 nM: IC50 (second compound 0.0316 µM)
115 nM: IC50 (second compound 1 µM)
154 nM: IC50 (second compound 10 µM)
inactive: viability, T/C [1] 86% | viability, T/C [2] 56.8% | viability, T/C [3] 38.9% | viability, T/C [4] 31.7% | viability, T/C [5] 25.9% | viability, T/C [6] 27.4% | viability, T/C [7] 93.8% | viability, T/C [8] 60.6% | viability, T/C [9] 34.7% | viability, T/C [10] 29.8% | viability, T/C [11] 24.5% | viability, T/C [12] 19.4% | viability, T/C [13] 102% | viability, T/C [14] 67.4% | viability, T/C [15] 35.2% | viability, T/C [16] 26.8% | viability, T/C [17] 22.4% | viability, T/C [18] 18.9% | viability, T/C [19] 101% | viability, T/C [20] 52.9% | viability, T/C [21] 29% | viability, T/C [22] 26.8% | viability, T/C [23] 21.6% | viability, T/C [24] 23.1% | viability, T/C [25] 96.7% | viability, T/C [26] 59.5% | viability, T/C [27] 45.8% | viability, T/C [28] 24.8% | viability, T/C [29] 23.6% | viability, T/C [30] 18.7% | viability, T/C [31] 104% | viability, T/C [32] 56.4% | viability, T/C [33] 40.1% | viability, T/C [34] 25.1% | viability, T/C [35] 20.1% | viability, T/C [36] 22.2%

CC1COCCN1c1cc(C2(O)CC3CCC(C2)O3)c2cnn(-c3ccn[nH]3)c2n1 (stereo unspecified) + Nc1ccc(C#CCN(C(=O)Cc2ncc(C(F)(F)F)cc2C(F)(F)F)c2ccc(F)cc2)nn1
337 nM: IC50 (second compound 0.0316 µM)
276 nM: IC50 (second compound 0.1 µM)
250 nM: IC50 (second compound 1 µM)
160 nM: IC50 (second compound 10 µM)
inactive: viability, T/C [1] 94.8% | viability, T/C [2] 67.6% | viability, T/C [3] 52.2% | viability, T/C [4] 37.1% | viability, T/C [5] 24.3% | viability, T/C [6] 17.9% | viability, T/C [7] 98.6% | viability, T/C [8] 76.6% | viability, T/C [9] 37.8% | viability, T/C [10] 38.1% | viability, T/C [11] 24.3% | viability, T/C [12] 15.3% | viability, T/C [13] 93.8% | viability, T/C [14] 76.3% | viability, T/C [15] 42% | viability, T/C [16] 35.2% | viability, T/C [17] 27.6% | viability, T/C [18] 19.9% | viability, T/C [19] 94.1% | viability, T/C [20] 69.1% | viability, T/C [21] 39.5% | viability, T/C [22] 36.8% | viability, T/C [23] 28.6% | viability, T/C [24] 18.5% | viability, T/C [25] 92.8% | viability, T/C [26] 54.9% | viability, T/C [27] 36.3% | viability, T/C [28] 26.7% | viability, T/C [29] 27.3% | viability, T/C [30] 14.6% | viability, T/C [31] 101% | viability, T/C [32] 56.2% | viability, T/C [33] 36.6% | viability, T/C [34] 26.9% | viability, T/C [35] 24.2% | viability, T/C [36] 9.04%
143 nM: IC50 (second compound 3.16 µM)
271 nM: IC50 (second compound 0.316 µM)
